Results on 12 molecules are retold here after patent US20230010886A1 (SUZHOU PUHE BIOPHARMA CO., LTD., priority 2019, published 2023).

What is called IC50 is the concentration that gives 50% inhibition. Higher therefore signals a need for much substance.

For one experiment, the system named is KYSE-520 cell line. The experiment can be described thus: Cell proliferation assay (CellTiter Glo), KYSE-520. Type of experiment: cell-based. The following applies: Homo sapiens, 3-5 days. Here is the method:
Firstly, the cells were seeded in 384-well cell culture plate and incubate overnight. The test compounds were added to the cell plate and incubated for 3-5 days. The cell plate was then detected using CellTiter Glo reagents.

The target in another experiment is T1, Full length SHP2 enzyme (Homo sapiens, UniProt Q06124).
T1 construct: Full length SHP2 enzyme (diluted to 0.1 nM in reaction buffer)
T1 sequence (Q06124 1-593): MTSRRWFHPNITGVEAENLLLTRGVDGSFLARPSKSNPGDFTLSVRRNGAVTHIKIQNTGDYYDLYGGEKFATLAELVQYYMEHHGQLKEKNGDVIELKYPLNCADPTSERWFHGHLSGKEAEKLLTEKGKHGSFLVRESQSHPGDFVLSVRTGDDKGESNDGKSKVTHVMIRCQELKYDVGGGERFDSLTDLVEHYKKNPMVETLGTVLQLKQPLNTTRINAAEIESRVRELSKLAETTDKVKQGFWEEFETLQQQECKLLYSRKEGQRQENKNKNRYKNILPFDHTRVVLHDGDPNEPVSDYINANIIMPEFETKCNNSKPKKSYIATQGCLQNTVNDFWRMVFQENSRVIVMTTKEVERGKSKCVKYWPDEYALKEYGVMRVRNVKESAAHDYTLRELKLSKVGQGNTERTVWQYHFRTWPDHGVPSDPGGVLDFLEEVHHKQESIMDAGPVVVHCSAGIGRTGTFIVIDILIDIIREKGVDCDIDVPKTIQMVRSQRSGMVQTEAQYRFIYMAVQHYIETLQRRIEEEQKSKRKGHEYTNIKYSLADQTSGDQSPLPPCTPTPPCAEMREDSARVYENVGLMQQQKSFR
Nature of the experiment: SHP2 phosphatase assay. The following applies: 1 μM IRS-1 peptide, DiFMUP substrate. Type of experiment: biochemical. How it is done:
IC50 values were determined at room temperature in 384-well black polystyrene plate, using a final reaction volume of 15 μL and the following assay buffer conditions: 60 mM Hepes (pH=7.2), 75 mM NaCl, 75 mM KCl, and 1 mM EDTA, 0.05% P-20, 5 mM dithiothreitol (DTT). Full length SHP2 enzyme (diluted to 0.1 nM in reaction buffer) were co-incubated with 1 μM IRS-1 peptide and 0.01 nM to 10 μM compounds of the disclosure for 60 min. The surrogate substrate DiFMUP (5 μL, 100 μM) was added, and incubated at rt for 60 min. The reaction was then quenched by the addition of 5 μL of a 40 μM solution of bpV(Phen). The fluorescence signal was monitored using a microplate reader (Envision, Perkin-Elmer) using excitation and emission wavelengths of 360 nm and 450 nm, respectively. The inhibitor dose-response curves were analyzed using normalized IC50 regression curve fitting with control-based normalization.

As to `NC1COCC12CCN(c1ncc(Sc3cccc(Cl)c3Cl)[nH]c1=O)CC2` (stereo not shown) [Example 10, 3-(4-amino-2-oxa-8-azaspiro[4.5]decan-8-yl)-6-((2,3-dichlorophenyl)thio)pyrazin-2 (1H)-one], the IC50 in the experiment on KYSE-520 cell line was less than 5000 nM.

Consider `C[C@@H]1OCC2(CCN(c3ncc(Sc4cccc(F)c4Cl)[nH]c3=O)CC2)[C@@H]1N` [Example 109, 3-((3S,4S)-4-amino-3-methyl-2-oxa-8-azaspiro[4.5]decan-8-yl)-6-((2-chloro-3-fluorophenyl)thio)pyrazin-2(1H)-one], for which the IC50 was no more than 50 nM against Full length SHP2 enzyme and less than 5000 nM with KYSE-520 cell line.

As for `C[C@@H]1OCC2(CCN(c3ncc(Sc4ccnc(F)c4Cl)[nH]c3=O)CC2)[C@@H]1N` [Example 83, 3-((3S,4S)-4-amino-3-methyl-2-oxa-8-azaspiro[4.5]decan-8-yl)-6-((3-chloro-2-fluoropyridin-4-yl)thio)pyrazin-2(1H)-one], the IC50 was no more than 50 nM on Full length SHP2 enzyme and less than 1000 nM with KYSE-520 cell line.

`N[C@@H]1COCC12CCN(c1ncc(Sc3cccc(Cl)c3Cl)[nH]c1=O)CC2` [Example 73, (S)-3-(4-amino-2-oxa-8-azaspiro[4.5]decan-8-yl)-6-((2,3-dichlorophenyl)thio)pyrazin-2 (1H)-one]: the results for the IC50 against Full length SHP2 enzyme and in the experiment with KYSE-520 cell line were no more than 50 nM and less than 5000 nM, respectively.

For the molecule `C[C@@H]1OCC2(CCN(c3ncc(Sc4cccc(F)c4F)[nH]c3=O)CC2)[C@@H]1N` [Example 82, 3-((3S,4S)-4-amino-3-methyl-2-oxa-8-azaspiro[4.5]decan-8-yl)-6-((2,3-difluorophenyl)thio)pyrazin-2(1H)-one], the IC50 against Full length SHP2 enzyme was no more than 50 nM; in the experiment on KYSE-520 cell line, less than 5000 nM.

`CC1(CN)CCN(c2ncc(Sc3cccc(NC(=O)c4c(O)nc5ccccn5c4=O)c3Cl)[nH]c2=O)CC1` [Example 29, N-(3-((5-(4-(aminomethyl)-4-methylpiperidin-1-yl)-6-oxo-1,6-dihydropyrazin-2-yl)thio)-2-chlorophenyl)-2-hydroxy-4-oxo-4H-pyrido[1,2-a]pyrimidine-3-carboxamide]: the IC50 against Full length SHP2 enzyme is no more than 50 nM; in the experiment with KYSE-520 cell line it was less than 5000 nM.

Take `C[C@@H]1OCC2(CCN(c3ncc(Sc4ccnc(F)c4F)[nH]c3=O)CC2)[C@@H]1N` [Example 84]: the IC50 against Full length SHP2 enzyme was no more than 50 nM; in the experiment on KYSE-520 cell line it was less than 1000 nM.

Take `CC1(CN)CCN(c2ncc(Sc3cccc(NC(=O)c4c(O)nc5sccn5c4=O)c3Cl)[nH]c2=O)CC1` [Example 31, N-(3-((5-(4-(aminomethyl)-4-methylpiperidin-1-yl)-6-oxo-1,6-dihydropyrazin-2-yl)thio)-2-chlorophenyl)-7-hydroxy-5-oxo-5H-thiazolo[3,2-a]pyrimidine-6-carboxamide]: the results for the IC50 at Full length SHP2 enzyme and in the experiment with KYSE-520 cell line were no more than 50 nM and less than 5000 nM, respectively.

On Full length SHP2 enzyme, `CC1(CN)CCN(c2ncc(Sc3cccc(NC(=O)c4c(O)nc5n(c4=O)CCCC5)c3Cl)[nH]c2=O)CC1` [Example 33, N-(3-((5-(4-(aminomethyl)-4-methylpiperidin-1-yl)-6-oxo-1,6-dihydropyrazin-2-yl)thio)-2-chlorophenyl)-2-hydroxy-4-oxo-6,7,8,9-tetrahydro-4H-pyrido [1,2-a]pyrimidine-3-carboxamide] returned a concentration for half-maximal inhibition (IC50) of no more than 50 nM.

On Full length SHP2 enzyme, `N[C@@H]1COCC12CCN(c1ncc(Sc3ccnc(Cl)c3Cl)[nH]c1=O)CC2` [Example 88, (S)-3-(4-amino-2-oxa-8-azaspiro[4.5]decan-8-yl)-6-((2,3-dichloropyridin-4-yl)thio)pyrazin-2(1H)-one] showed an IC50 of no more than 50 nM.

Molecule `N[C@@H]1c2cccnc2CC12CCN(c1ncc(Sc3cccc(Cl)c3Cl)[nH]c1=O)CC2` [Example 134, (S)-3-(5-amino-5,7-dihydrospiro[cyclopenta[b]pyridine-6,4′-piperidin]-1′-yl)-6-((2,3-dichlorophenyl)thio)pyrazin-2(1H)-one] registered an IC50 against Full length SHP2 enzyme of no more than 50 nM.

For the molecule `Cn1c(N2CCC(C)(CN)C2)nc(N)c(Sc2cccc(Cl)c2Cl)c1=O` (stereo not shown) [Example 52, 6-amino-2-(3-(aminomethyl)-3-methylpyrrolidin-1-yl)-5-((2,3-dichlorophenyl)thio)-3-methylpyrimidin-4(3H)-one], the IC50 at Full length SHP2 enzyme was no more than 50 nM.
